{
  "source": "patent US6395683B1",
  "about": "“Heterocyclylbenzonitriles” (Bayer Aktiengesellschaft, priority 1994, dated 2002)",
  "experiment_in_all_cases": "Post-emergence test",
  "assay_type_in_all_cases": "in vivo",
  "key": {"[1]": {"system": "Abutilon", "conditions": "30 g/ha, after three weeks", "method": "(§1) Post-emergence Test Solvent: 5 parts by weight of acetone Emulsifier: 1 part by weight of alkylaryl polyglycol ether To produce a suitable preparation of active compound, 1 part by weight of active compound is mixed with the stated amount of solvent, the stated amount of emulsifier is added and the concentrate is diluted with water to the desired concentration. Test plants which have a height of 5-15 cm are sprayed with the preparation of the active compound in such a way as to apply the particular amounts of active compound desired per unit area. After three weeks, the degree of damage to the plants is rated in % damage in comparison to the development of the untreated control. The figures denote: 0%=no action (like untreated control) 100%=total destruction"}, "[2]": {"system": "Amaranthus", "conditions": "30 g/ha, after three weeks", "method": "as §1"}, "[3]": {"system": "Chenopodium", "conditions": "30 g/ha, after three weeks", "method": "as §1"}, "[4]": {"system": "Veronica", "conditions": "30 g/ha, after three weeks", "method": "as §1"}, "[5]": {"system": "barley", "conditions": "30 g/ha, barley (crop plant), after three weeks", "method": "as §1"}},
  "data": [
    {"molecule": "CS(=O)(=O)Nc1cc(N2C(=O)C3=C(CCCC3)C2=O)c(F)cc1C#N", "note": "[Example 1, N-(4-cyano-2-fluoro-5-methylsulphonylaminophenyl)-3,4,5,6-tetrahydrophthalimide]", "values": [
      {"measurement": "degree of damage to the plants, % damage in comparison to untreated control", "setting": "[1]", "result": 100, "unit": "%"},
      {"measurement": "degree of damage to the plants, % damage in comparison to untreated control", "setting": "[2]", "result": 100, "unit": "%"},
      {"measurement": "degree of damage to the plants, % damage in comparison to untreated control", "setting": "[3]", "result": 95, "unit": "%"},
      {"measurement": "degree of damage to the plants, % damage in comparison to untreated control", "setting": "[4]", "result": 100, "unit": "%"},
      {"measurement": "tolerance with respect to crop plants", "setting": "[5]", "result": "very good tolerance"}
    ]}
  ]
}
